Measurements reported in publication PMC5218480 (PLoS ONE, 2017).

Tested on: MV-4-11 cells
Experiment: Gene expression microarray analysis (Affymetrix PrimeView) and GSEA
Assay type: cell-based, human
Parameters: RFU PODN (11730768_x_at) / Fold change /veh PODN (11730768_x_at) / RFU LINC00158 (11744669_a_at) / Fold change /veh LINC00158 (11744669_a_at) / RFU DUSP10 (11751237_a_at) / Fold change /veh DUSP10 (11751237_a_at) / RFU ID3 (11757404_x_at) / Fold change /veh ID3 (11757404_x_at) / RFU PLEKHG5 (11737974_s_at) / Fold change /veh PLEKHG5 (11737974_s_at) / RFU LRRC4B (11730491_at) / Fold change /veh LRRC4B (11730491_at) / RFU GIMAP4 (11747438_a_at) / Fold change /veh GIMAP4 (11747438_a_at) / RFU KRT8 (11758183_x_at) / Fold change /veh KRT8 (11758183_x_at) / RFU CNN1 (11734310_a_at) / Fold change /veh CNN1 (11734310_a_at) / RFU VPS37D (11726825_at) / Fold change /veh VPS37D (11726825_at) / RFU C10orf10 (11716522_x_at) / Fold change /veh C10orf10 (11716522_x_at) / RFU KIR2DL2 /// KIR2DL4 /// KIR2DL5A /// KIR2DL5B /// KIR2DS1 /// KIR2DS2 /// KIR2DS3 /// KIR2DS4 /// KIR3DL3 /// KIR3DL3 /// KIR3DS1 (11738374_at) / Fold change /veh KIR2DL2 /// KIR2DL4 /// KIR2DL5A /// KIR2DL5B /// KIR2DS1 /// KIR2DS2 /// KIR2DS3 /// KIR2DS4 /// KIR3DL3 /// KIR3DL3 /// KIR3DS1 (11738374_at) / RFU C1QL1 (11718748_at) / Fold change /veh C1QL1 (11718748_at) / RFU TMPRSS4 (11747572_a_at) / Fold change /veh TMPRSS4 (11747572_a_at) / RFU HAMP (11756126_x_at) / Fold change /veh HAMP (11756126_x_at) / RFU RNFT2 (11725882_a_at) / Fold change /veh RNFT2 (11725882_a_at) / RFU NR4A2 (11747474_a_at) / Fold change /veh NR4A2 (11747474_a_at) / RFU ABCC12 (11746883_a_at) / Fold change /veh ABCC12 (11746883_a_at) / RFU TMEM136 (11760407_x_at) / Fold change /veh TMEM136 (11760407_x_at) / RFU CLDN22 /// WWC2 (11732394_at) / Fold change /veh CLDN22 /// WWC2 (11732394_at) / RFU HLA-DPB1 (11760878_x_at) / Fold change /veh HLA-DPB1 (11760878_x_at) / RFU SPINT1 (11716480_a_at) / Fold change /veh SPINT1 (11716480_a_at) / RFU GAP43 (11754022_s_at) / Fold change /veh GAP43 (11754022_s_at) / RFU A4GNT (11735810_at) / Fold change /veh A4GNT (11735810_at) / RFU PRB3 (11715151_x_at) / Fold change /veh PRB3 (11715151_x_at) / RFU TUBB4B (11761932_at) / Fold change /veh TUBB4B (11761932_at) / RFU CAPN14 (11732068_a_at) / Fold change /veh CAPN14 (11732068_a_at) / RFU TMCC2 (11721928_a_at) / Fold change /veh TMCC2 (11721928_a_at) / RFU IRGQ (11745062_a_at) / Fold change /veh IRGQ (11745062_a_at) / RFU FAM174B (11720279_a_at) / Fold change /veh FAM174B (11720279_a_at) / RFU TMPRSS4 (11748680_a_at) / Fold change /veh TMPRSS4 (11748680_a_at) / RFU FAM212B (11763350_a_at) / Fold change /veh FAM212B (11763350_a_at) / RFU PLEKHG5 (11743358_a_at) / Fold change /veh PLEKHG5 (11743358_a_at) / RFU ZSCAN30 (11745921_a_at) / Fold change /veh ZSCAN30 (11745921_a_at) / RFU CMKLR1 (11741424_a_at) / Fold change /veh CMKLR1 (11741424_a_at) / RFU LOC101060620 /// MAPK8IP1 (11723275_at) / Fold change /veh LOC101060620 /// MAPK8IP1 (11723275_at) / RFU SPTSSB (11747773_x_at) / Fold change /veh SPTSSB (11747773_x_at) / RFU PRSS12 (11739890_at) / Fold change /veh PRSS12 (11739890_at) / RFU BIN1 (11741810_x_at) / Fold change /veh BIN1 (11741810_x_at) / RFU WNT11 (11732464_a_at) / Fold change /veh WNT11 (11732464_a_at) / RFU C10orf10 (11716521_a_at) / Fold change /veh C10orf10 (11716521_a_at) / RFU C5orf56 (11738089_at) / Fold change /veh C5orf56 (11738089_at) / RFU CYB561 (11721691_x_at) / Fold change /veh CYB561 (11721691_x_at) / RFU ANKRD19P (11752326_a_at) / Fold change /veh ANKRD19P (11752326_a_at) / RFU OR2T12 /// OR2T33 /// OR2T8 (11738714_s_at) / Fold change /veh OR2T12 /// OR2T33 /// OR2T8 (11738714_s_at) / RFU VCAN (11748164_a_at) / Fold change /veh VCAN (11748164_a_at) / RFU JSRP1 (11732532_at) / Fold change /veh JSRP1 (11732532_at) / RFU KRTAP10-11 (11738290_x_at) / Fold change /veh KRTAP10-11 (11738290_x_at) / RFU MYO3A (11730013_a_at) / Fold change /veh MYO3A (11730013_a_at) / RFU EBF3 (11725865_a_at) / Fold change /veh EBF3 (11725865_a_at) / RFU CAMK2N1 (11719241_x_at) / Fold change /veh CAMK2N1 (11719241_x_at) / RFU C5orf56 (11738088_a_at) / Fold change /veh C5orf56 (11738088_a_at) / RFU OLFML3 (11715873_a_at) / Fold change /veh OLFML3 (11715873_a_at) / RFU LOC100653217 /// NTM (11731650_a_at) / Fold change /veh LOC100653217 /// NTM (11731650_a_at) / RFU MAPK11 (11762145_a_at) / Fold change /veh MAPK11 (11762145_a_at) / RFU FIZ1 (11724087_x_at) / Fold change /veh FIZ1 (11724087_x_at) / RFU OASL (11726364_x_at) / Fold change /veh OASL (11726364_x_at) / RFU SOX15 (11748057_x_at) / Fold change /veh SOX15 (11748057_x_at) / RFU CD79A (11719716_a_at) / Fold change /veh CD79A (11719716_a_at) / RFU HIST1H1D (11736915_at) / Fold change /veh HIST1H1D (11736915_at) / RFU CASKIN2 (11723855_a_at) / Fold change /veh CASKIN2 (11723855_a_at) / RFU LOC730098 (11760151_x_at) / Fold change /veh LOC730098 (11760151_x_at) / RFU OR4N2 (11742367_at) / Fold change /veh OR4N2 (11742367_at) / RFU PRRT2 (11749266_a_at) / Fold change /veh PRRT2 (11749266_a_at) / RFU SNX32 (11753110_a_at) / Fold change /veh SNX32 (11753110_a_at) / RFU CDHR5 (11726645_a_at) / Fold change /veh CDHR5 (11726645_a_at) / RFU RCAN1 (11760418_a_at) / Fold change /veh RCAN1 (11760418_a_at) / RFU FAM167A (11723789_a_at) / Fold change /veh FAM167A (11723789_a_at) / RFU FAM26E (11764081_at) / Fold change /veh FAM26E (11764081_at) / RFU ISYNA1 (11749810_s_at) / Fold change /veh ISYNA1 (11749810_s_at) / RFU ACY1 (11761880_at) / Fold change /veh ACY1 (11761880_at) / RFU 11764098_at / Fold change /veh 11764098_at / RFU SAMD14 (11745864_x_at) / Fold change /veh SAMD14 (11745864_x_at) / RFU NPB (11741838_a_at) / Fold change /veh NPB (11741838_a_at) / RFU TMPRSS6 (11731388_a_at) / Fold change /veh TMPRSS6 (11731388_a_at) / RFU KRTAP10-2 (11738614_at) / Fold change /veh KRTAP10-2 (11738614_at) / RFU ARHGAP8 /// PRR5-ARHGAP8 (11727945_x_at) / Fold change /veh ARHGAP8 /// PRR5-ARHGAP8 (11727945_x_at) / RFU KRTAP5-7 /// NADSYN1 (11734609_at) / Fold change /veh KRTAP5-7 /// NADSYN1 (11734609_at) / RFU RASL12 (11751679_a_at) / Fold change /veh RASL12 (11751679_a_at) / RFU CDKN2B (11736163_a_at) / Fold change /veh CDKN2B (11736163_a_at) / RFU PRF1 (11729649_at) / Fold change /veh PRF1 (11729649_at) / RFU, ZNF638 /// ZNF638-IT1 / Fold change vs veh, ZNF638 /// ZNF638-IT1 / RFU, PANK3 / Fold change vs veh, PANK3 / RFU, SH3YL1 / Fold change vs veh, SH3YL1 / RFU, ZEB2 / Fold change vs veh, ZEB2 / RFU, NRIP1 / Fold change vs veh, NRIP1 / RFU, PTTG1IP / Fold change vs veh, PTTG1IP / RFU, CAPN2 / Fold change vs veh, CAPN2 / RFU, MED14 / Fold change vs veh, MED14 / RFU, SNORA58 / Fold change vs veh, SNORA58 / RFU, C1orf63 / Fold change vs veh, C1orf63 / RFU, LRRFIP1 / Fold change vs veh, LRRFIP1 / RFU, NDUFAF7 / Fold change vs veh, NDUFAF7 / RFU, SLC12A2 / Fold change vs veh, SLC12A2 / RFU, IBTK / Fold change vs veh, IBTK / RFU, ESF1 / Fold change vs veh, ESF1 / Fold change vs veh, TMEM50B / RFU, TAOK1 / Fold change vs veh, TAOK1 / RFU, ACBD3 / Fold change vs veh, ACBD3 / RFU, TMA16 / Fold change vs veh, TMA16 / RFU, RWDD3 / Fold change vs veh, RWDD3 / RFU, BCAT1 / Fold change vs veh, BCAT1 / RFU, EDEM3 / Fold change vs veh, EDEM3 / RFU, TMEM33 / Fold change vs veh, TMEM33 / RFU, WDR75 / Fold change vs veh, WDR75 / RFU, AHCTF1 / Fold change vs veh, AHCTF1 / RFU, TFRC / Fold change vs veh, TFRC / RFU, ZDHHC17 / Fold change vs veh, ZDHHC17 / RFU, NOM1 / Fold change vs veh, NOM1 / RFU, ARL8B / Fold change vs veh, ARL8B / RFU, ZBTB11 / Fold change vs veh, ZBTB11 / RFU, TAMM41 / Fold change vs veh, TAMM41 / RFU, KIAA1704 /// LOC100996395 / Fold change vs veh, KIAA1704 /// LOC100996395 / RFU, ING1 / Fold change vs veh, ING1 / RFU, TRMT61B / Fold change vs veh, TRMT61B / RFU, FUBP3 / Fold change vs veh, FUBP3 / RFU, TP53 / Fold change vs veh, TP53 / RFU, TNKS2 / Fold change vs veh, TNKS2 / RFU, ZFP14 / Fold change vs veh, ZFP14 / RFU, ACTR2 / Fold change vs veh, ACTR2 / RFU, PPP3R1 / Fold change vs veh, PPP3R1 / RFU, PIK3R1 / Fold change vs veh, PIK3R1 / RFU, HNRNPA1 / Fold change vs veh, HNRNPA1 / RFU, RNF170 / Fold change vs veh, RNF170 / RFU, ZNF28 / Fold change vs veh, ZNF28 / RFU, RNGTT / Fold change vs veh, RNGTT / RFU, OGT / Fold change vs veh, OGT / RFU, BRD1 / Fold change vs veh, BRD1 / RFU, MARS / Fold change vs veh, MARS / RFU, ZNF655 / Fold change vs veh, ZNF655 / RFU, FAHD1 / Fold change vs veh, FAHD1 / RFU, BDP1 / Fold change vs veh, BDP1 / RFU, LRRCC1 / Fold change vs veh, LRRCC1 / RFU, ARID1A / Fold change vs veh, ARID1A / RFU, ZNF146 / Fold change vs veh, ZNF146 / RFU, ZNF330 / Fold change vs veh, ZNF330 / RFU, GPN3 / Fold change vs veh, GPN3 / RFU, C9orf123 / Fold change vs veh, C9orf123 / RFU, N4BP2L2 / Fold change vs veh, N4BP2L2 / RFU, ARFIP1 / Fold change vs veh, ARFIP1 / RFU, FAM179B / Fold change vs veh, FAM179B / RFU, BCL10 / Fold change vs veh, BCL10 / RFU, UHRF1BP1L / Fold change vs veh, UHRF1BP1L / RFU, BET1 / Fold change vs veh, BET1 / RFU, CNOT2 / Fold change vs veh, CNOT2 / RFU, ZNF268 / Fold change vs veh, ZNF268 / Fold change vs veh, ZNF507 / RFU, DGCR2 / Fold change vs veh, DGCR2 / RFU, WDSUB1 / Fold change vs veh, WDSUB1 / Fold change vs veh, HSP90B1 /// MIR3652 / RFU, ADSS / Fold change vs veh, ADSS / RFU, GK / Fold change vs veh, GK / RFU, ZNF148 / Fold change vs veh, ZNF148 / RFU, TAF9 / Fold change vs veh, TAF9 / RFU, SLC1A5 / Fold change vs veh, SLC1A5 / RFU, SLMO2 / Fold change vs veh, SLMO2 / RFU, ABCC4 / Fold change vs veh, ABCC4 / RFU, LOC101060439 /// RAP1B / Fold change vs veh, LOC101060439 /// RAP1B / RFU, RFX7 / Fold change vs veh, RFX7 / RFU, GTPBP10 / Fold change vs veh, GTPBP10 / RFU, CNEP1R1 / Fold change vs veh, CNEP1R1 / RFU, BIVM-ERCC5 /// ERCC5 / Fold change vs veh, BIVM-ERCC5 /// ERCC5 / RFU, ILF3 / Fold change vs veh, ILF3 / RFU 11762660_at / Fold change /veh 11762660_at / RFU VCAN (11757783_s_at) / Fold change /veh VCAN (11757783_s_at) / RFU DDX43 (11728927_at) / Fold change /veh DDX43 (11728927_at) / RFU KRT8 (11758188_x_at) / Fold change /veh KRT8 (11758188_x_at) / RFU NKD1 (11759106_at) / Fold change /veh NKD1 (11759106_at) / RFU SRD5A1 (11742802_a_at) / Fold change /veh SRD5A1 (11742802_a_at) / RFU TPSAB1 /// TPSB2 (11721975_s_at) / Fold change /veh TPSAB1 /// TPSB2 (11721975_s_at) / RFU GSTM3 (11746129_a_at) / Fold change /veh GSTM3 (11746129_a_at) / RFU IL23R (11737362_x_at) / Fold change /veh IL23R (11737362_x_at) / RFU TMEM51 (11727254_a_at) / Fold change /veh TMEM51 (11727254_a_at) / RFU PIWIL2 (11732686_x_at) / Fold change /veh PIWIL2 (11732686_x_at) / RFU ORM1 (11744905_x_at) / Fold change /veh ORM1 (11744905_x_at) / RFU CCDC152 (11743942_at) / Fold change /veh CCDC152 (11743942_at) / RFU ECM1 (11717891_a_at) / Fold change /veh ECM1 (11717891_a_at) / RFU IL23R (11748794_a_at) / Fold change /veh IL23R (11748794_a_at) / RFU TNFAIP8L3 (11732012_x_at) / Fold change /veh TNFAIP8L3 (11732012_x_at) / RFU MBOAT4 (11741988_at) / Fold change /veh MBOAT4 (11741988_at) / RFU 11764193_at / Fold change /veh 11764193_at / RFU TMEM53 (11763286_at) / Fold change /veh TMEM53 (11763286_at) / RFU MAGEB2 (11727129_at) / Fold change /veh MAGEB2 (11727129_at) / RFU TMEM200A (11744735_a_at) / Fold change /veh TMEM200A (11744735_a_at) / RFU CCDC152 (11751479_a_at) / Fold change /veh CCDC152 (11751479_a_at) / RFU FAM211A (11726209_a_at) / Fold change /veh FAM211A (11726209_a_at) / RFU RGS16 (11746705_a_at) / Fold change /veh RGS16 (11746705_a_at) / RFU VCAN (11755009_s_at) / Fold change /veh VCAN (11755009_s_at) / RFU RHOB (11743442_s_at) / Fold change /veh RHOB (11743442_s_at) / RFU RGS16 (11720943_a_at) / Fold change /veh RGS16 (11720943_a_at) / RFU RGS16 (11720944_at) / Fold change /veh RGS16 (11720944_at) / RFU, VPS4B / Fold change vs veh, VPS4B / RFU, CREB1 / Fold change vs veh, CREB1 / RFU, DNAJC13 / Fold change vs veh, DNAJC13 / RFU, GNAQ / Fold change vs veh, GNAQ / RFU, CDK5R1 / Fold change vs veh, CDK5R1 / RFU, ZRANB3 / Fold change vs veh, ZRANB3 / RFU, CUL4A / Fold change vs veh, CUL4A / RFU, CCNY / Fold change vs veh, CCNY / RFU, UFL1 / Fold change vs veh, UFL1 / RFU, COG3 / Fold change vs veh, COG3 / RFU, DIAPH2 / Fold change vs veh, DIAPH2 / RFU, SKA2 / Fold change vs veh, SKA2 / RFU, AFF3 / Fold change vs veh, AFF3 / RFU, LMF1 / Fold change vs veh, LMF1 / RFU, IPO11 / Fold change vs veh, IPO11 / RFU, DFFB / Fold change vs veh, DFFB / RFU, FOXP1 / Fold change vs veh, FOXP1 / RFU, CARD8 / Fold change vs veh, CARD8 / RFU, STRN3 / Fold change vs veh, STRN3 / RFU, ADK / Fold change vs veh, ADK / RFU, RASSF2 / Fold change vs veh, RASSF2 / RFU, WIPF1 / Fold change vs veh, WIPF1 / RFU, LARP1B / Fold change vs veh, LARP1B / RFU, RASA1 / Fold change vs veh, RASA1 / RFU, RB1 / Fold change vs veh, RB1 / RFU, PPFIA1 / Fold change vs veh, PPFIA1 / RFU, MAT2A / Fold change vs veh, MAT2A / RFU, CCT5 / Fold change vs veh, CCT5 / RFU, WDR92 / Fold change vs veh, WDR92 / RFU, CUX1 / Fold change vs veh, CUX1 / RFU, TTC7A / Fold change vs veh, TTC7A / RFU, TMEM135 / Fold change vs veh, TMEM135 / RFU, DEPTOR / Fold change vs veh, DEPTOR / RFU, CPM / Fold change vs veh, CPM / RFU, DNAJB6 / Fold change vs veh, DNAJB6 / RFU, CACNA2D3 / Fold change vs veh, CACNA2D3 / RFU, DTX4 / Fold change vs veh, DTX4 / RFU, TFCP2 / Fold change vs veh, TFCP2 / RFU, GMCL1 /// GMCL1P1 / Fold change vs veh, GMCL1 /// GMCL1P1 / RFU, AEBP2 / Fold change vs veh, AEBP2 / RFU, SNHG1 /// SNORD22 /// SNORD25 /// SNORD26 /// SNORD27 /// SNORD28 /// SNORD29 /// SNORD31 / Fold change vs veh, SNHG1 /// SNORD22 /// SNORD25 /// SNORD26 /// SNORD27 /// SNORD28 /// SNORD29 /// SNORD31 / Fold change (Aza/veh), C12orf56 (ProbeSet 11735607_a_at) / Fold change (ACY-1035/veh), C12orf56 (ProbeSet 11735607_a_at) / Fold change (Aza/veh), FGFR1OP (ProbeSet 11751329_s_at) / Fold change (ACY-1035/veh), FGFR1OP (ProbeSet 11751329_s_at) / Fold change (Aza/veh), VPS36 (ProbeSet 11739960_a_at) / Fold change (ACY-1035/veh), VPS36 (ProbeSet 11739960_a_at) / RFU SYPL1 (11715823_x_at) / Fold change /veh SYPL1 (11715823_x_at) / RFU IGFBP7 (11715501_s_at) / Fold change /veh IGFBP7 (11715501_s_at) / RFU REEP3 (11722064_at) / Fold change /veh REEP3 (11722064_at) / RFU IGLL1 (11728026_x_at) / Fold change /veh IGLL1 (11728026_x_at): dose or concentration left out as unconfirmed
Details: MV-4-11 cells, 48 hours

## Nc1ncn([C@@H]2O[C@H](CO)[C@@H](O)[C@H]2O)c(=O)n1 [azacitidine]
  Fold change /veh CLDN22 /// WWC2 (11732394_at): 1.14
